# ChEMBL document CHEMBL3588776, “Inhibitors of the human neuraminidase enzymes” (Medchemcomm, 2014)
# Target: T1, Sialidase-3 (Homo sapiens, UniProt Q9UQ49)
# T1 sequence (Q9UQ49 whole entry): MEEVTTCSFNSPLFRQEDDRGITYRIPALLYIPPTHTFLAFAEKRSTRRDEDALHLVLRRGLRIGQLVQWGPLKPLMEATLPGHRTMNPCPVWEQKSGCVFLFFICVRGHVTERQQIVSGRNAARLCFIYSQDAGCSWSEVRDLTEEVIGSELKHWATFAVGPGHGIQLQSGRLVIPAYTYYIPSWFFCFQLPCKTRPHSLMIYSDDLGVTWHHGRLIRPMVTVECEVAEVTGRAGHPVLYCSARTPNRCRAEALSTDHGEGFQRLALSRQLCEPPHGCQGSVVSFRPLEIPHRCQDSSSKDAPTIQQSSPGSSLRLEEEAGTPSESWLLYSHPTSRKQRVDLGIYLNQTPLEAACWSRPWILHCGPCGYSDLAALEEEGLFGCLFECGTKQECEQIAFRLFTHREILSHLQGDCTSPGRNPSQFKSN
# Test: Inhibition of human recombinant NEU3 expressed in Escherichia coli pre-incubated for 10 mins before addition of followed by the addition of MUNANA substrate
structure (smiles),measurement,value
C#CCCC(=O)N[C@@H]1[C@@H](O)[C@@H](F)[C@](F)(C(=O)O)O[C@H]1[C@H](O)[C@H](O)CO,IC50,5 µM
